Experimental data taken from patent US7012089B2, “[1,4]Diazocino[7,8,1-hi]indole derivatives as antipsychotic and antiobesity agents” (Wyeth, priority 2002, dated 2006).
Like-named read-outs stand apart in the source and are kept apart here.

Experiments:
[1] = biological target: T1, human 5-hydroxytryptamine-2C (h-5-HT2C) receptor (Homo sapiens, UniProt P28335); experiment: [125I]DOI binding to membranes of CHO cells expressing the h-5-HT2C receptor
T1 sequence (P28335 33-458): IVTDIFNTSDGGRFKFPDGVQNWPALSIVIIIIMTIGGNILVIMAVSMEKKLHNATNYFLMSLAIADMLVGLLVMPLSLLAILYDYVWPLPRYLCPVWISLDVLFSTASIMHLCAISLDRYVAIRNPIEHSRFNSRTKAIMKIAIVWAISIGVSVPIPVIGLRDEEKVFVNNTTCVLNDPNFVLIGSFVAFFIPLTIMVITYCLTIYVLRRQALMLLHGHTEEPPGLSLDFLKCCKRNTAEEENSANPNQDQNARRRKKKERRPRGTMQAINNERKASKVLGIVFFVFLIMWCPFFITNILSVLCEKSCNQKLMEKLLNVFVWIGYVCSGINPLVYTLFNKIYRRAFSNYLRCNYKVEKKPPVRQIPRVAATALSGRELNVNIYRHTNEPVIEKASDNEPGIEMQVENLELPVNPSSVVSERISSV

[2] = biological target: T2, human 5-HT2C receptor (Homo sapiens, UniProt P28335); experiment: 5-HT2C receptor-stimulated calcium mobilization (FLIPR) in CHO cells; assay type: cell-based; conditions: for Emax: CHO, read-out: 5-HT2C Function Emax (%)
T2 sequence (P28335 33-458): T1 sequence (P28335 33-458)

[3] = 5-HT2c Affinity KI (nM), displacement of [125I]DOI, CHO cell membranes
[4] = calcium mobilization, CHO cells stably expressing human 5-HT2C, read-out: 5-HT2C Function EC50

| Structure (SMILES) | Ki [1, 3] [nM] | EC50 [2] [nM] | Emax [2] [%] | other results |
| --- | --- | --- | --- | --- |
| Fc1ccc2c3c1[C@H]1CCCC[C@H]1N3CCNCC2 (single isomer, unassigned) [Example 32, (+)-(8bR*,12aR*)-8-Fluoro-2,3,4,5,8b,9,10,11,12,12a-decahydro-1H-[1,4]diazocino[7,8,1-jk]carbazole] | 2 |  |  |  |
| Fc1ccc2c3c1[C@H]1CCCC[C@H]1N3CCNCC2 (single isomer, unassigned) [Example 33, (−)-(8bR*,12aR*)-8-Fluoro-2,3,4,5,8b,9,10,11,12,12a-decahydro-1H-[1,4]diazocino[7,8,1-jk]carbazole] | 1.4 |  |  |  |
| Clc1ccc2c3c1[C@H]1CCCC[C@H]1N3CCNCC2 (single isomer, unassigned) [Example 42, (+)-(8bR*,12aR*)-8-Chloro-2,3,4,5,8b,9,10,11,12,12a-decahydro-1H-[1,4]diazocino[7,8,1-jk]carbazole] | 5.1 |  |  |  |
| Clc1ccc2c3c1[C@H]1CCCC[C@H]1N3CCNCC2 (single isomer, unassigned) [Example 43, (−)-(8bR*,12aR*)-8-Chloro-2,3,4,5,8b,9,10,11,12,12a-decahydro-1H-[1,4]diazocino[7,8,1-jk]carbazole] | 7 |  |  |  |
| c1cc2c3c(c1)[C@H]1CCC[C@H]1N3CCNCC2 (single isomer, unassigned) [Example 45, (+)-(8bR*,11aR*)-2,3,4,5,9,10,11,11a-Octahydro-1H,8bH-cyclopenta[b][1,4]diazocino[7,8,1-hi]indole] | 362 |  |  |  |
| c1cc2c3c(c1)[C@H]1CCC[C@H]1N3CCNCC2 (single isomer, unassigned) [Example 46, (−)-(8bR*,11aR*)-2,3,4,5,9,10,11,11a-Octahydro-1H,8bH-cyclopenta[b][1,4]diazocino[7,8,1-hi]indole] | 19 | 38 | 70 |  |
| c1cc2c3c(c1)[C@H]1CCCC[C@H]1N3CCNCC2 (single isomer, unassigned) [Example 47, (+)-(8bR*,12aR*)-2,3,4,5,8b,9,10,11,12,12a-Decahydro-1H-[1,4]diazocino[7,8,1-jk]carbazole] | 135 |  |  |  |
| c1cc2c3c(c1)[C@H]1CCCC[C@H]1N3CCNCC2 (single isomer, unassigned) [Example 48, (−)-(8bR*,12aR*)-2,3,4,5,8b,9,10,11,12,12a-Decahydro-1H[1,4]diazocino[7,8,1-jk]carbazole] | 17 | 42 | 70 |  |
| c1cc2c3c(c1)c1c(n3CCNCC2)CCC1 [Example 2, 2,3,4,5,10,11-Hexahydro-1H,9H-cyclopenta[b][1,4]diazocino[7,8,1-hi]indole] | 38 | 20 | 80 |  |
| CN1CCc2cccc3c2N(CC1)C1CCCC31 (centres unmarked) [Example 3, 3-Methyl-2,3,4,5,9,10,11,11a-octahydro-1H,8bH-cyclopenta[b][1,4]diazocino[7,8,1-hi]indole] | 41 | 37 | 50 |  |
| c1cc2c3c(c1)C1CCCC1N3CCNCC2 (centres unmarked) [Example 4, 2,3,4,5,9,10,11,11a-Octahydro-1H,8bH-cyclopenta[b][1,4]diazocino[7,8,1-hi]indole] | 31 | 18 | 90 |  |
| c1cc2c3c(c1)c1c(n3CCNCC2)CCCC1 [Example 6, 2,3,4,5,9,10,11,12-Octahydro-1H-[1,4]diazocino[7,8,1-jk]carbazole] | 4 | 6 | 80 |  |
| CN1CCc2cccc3c2N(CC1)C1CCCCC31 (centres unmarked) [Example 7, 3-Methyl-2,3,4,5,8b,9,10,11,12,12a-decahydro-1H-[1,4]diazocino[7,8,1-jk]carbazole] | 24 | 74 | 60 |  |
| c1cc2c3c(c1)C1CCCCC1N3CCNCC2 (centres unmarked) [Example 8, 2,3,4,5,8b,9,10,11,12,12a-Decahydro-1H-[1,4]diazocino[7,8,1-jk]carbazole] | 22 | 18 | 80 |  |
| CN1CCc2cccc3c4c(n(c23)CC1)CCCCC4 [Example 9, 3-Methyl-2,3,4,5,10,11,12,13-octahydro-1H,9H-cyclohepta[b][1,4]diazocino[7,8,1-hi]indole] | 19 |  | 25 | EC50 [2, 4]: 275 nM |
| c1cc2c3c(c1)c1c(n3CCNCC2)CCCCC1 [Example 10, 2,3,4,5,10,11,12,13-Octahydro-1H,9H-cyclohepta[b]1,4]diazocino[7,8,1-hi]indole] | 38 |  | 90 | EC50 [2, 4]: 156 nM |
| CN1CCc2c(Cl)ccc3c2N(CC1)C1CCCC31 (centres unmarked) [Example 15, 6-Chloro-3-Methyl-2,3,4,5,9,10,11,11a-octahydro-1H,8bH-cyclopenta[b][1,4]diazocino[7,8,1-hi]indole] |  |  |  | Ki ([1]; read-out: 5-HT2c Affinity KI): 131 nM |
| CN1CCc2c(Cl)ccc3c2N(CC1)C1CCCCCC31 (centres unmarked) [Example 16, 6-Chloro-3-methyl-2,3,4,5,9,10,11,12,13,13a-decahydro-1H,8bH-cyclohepta[b][1,4]diazocino[7,8,1-hi]indole] | 84 |  |  |  |

| Structure (SMILES) | Ki [1, 3] [nM] | EC50 [2] [nM] | Emax [2] [%] | other results |
| --- | --- | --- | --- | --- |
| Clc1ccc2c3c(n4c2c1CCNCC4)CCC3 [Example 17, 6-Chloro-2,3,4,5,10,11-hexahydro-1H,9H-cyclopenta[b][1,4]diazocino[7,8,1-hi]indole] |  |  |  | Ki ([1]; read-out: 5-HT2c Affinity KI): 156 nM |
| Clc1ccc2c3c(n4c2c1CCNCC4)CCCC3 [Example 18, 6-Chloro-2,3,4,5,9,10,11,12-octahydro-1H-[1,4]diazocino[7,8,1-jk]carbazole] | 83 |  |  |  |
| Clc1ccc2c3c(n4c2c1CCNCC4)CCCCC3 [Example 19, 6-Chloro-2,3,4,5,10,11,12,13-octahydro-1H,9H-cyclohepta[b][1,4]diazocino[7,8,1-hi]indole] |  |  |  | Ki ([1]; read-out: 5-HT2c Affinity KI): 4970 nM |
| Clc1ccc2c3c1CCNCCN3C1CCCC21 (centres unmarked) [Example 20, 6-Chloro-2,3,4,5,9,10,11,11a-octahydro-1H,8bH-cyclopenta[b][1,4]diazocino[7,8,1-hi]indole] |  |  |  | Ki ([1]; read-out: 5-HT2c Affinity KI): 111 nM |
| CCN1CCc2c(Cl)ccc3c2N(CC1)C1CCCC31 (centres unmarked) [Example 21, 6-Chloro-3-ethyl-2,3,4,5,9,10,11,11a-octahydro-1H,8bH-cyclopenta[b][1,4]diazocino[7,8,1-hi]indole] |  |  |  | Ki ([1]; read-out: 5-HT2c Affinity KI): 137 nM |
| Clc1ccc2c3c1CCNCCN3C1CCCCCC21 (centres unmarked) [Example 22, 6-Chloro-2,3,4,5,9,10,11,12,13,13a-decahydro-1H,8bH-cyclohepta[b][1,4]diazocino[7,8,1-hi]indole] | 50 |  | 60 | EC50 [2, 4]: 326 nM |
| CCN1CCc2c(Cl)ccc3c2N(CC1)C1CCCCC31 (centres unmarked) [Example 23, 6-Chloro-3-ethyl-2,3,4,5,8b,9,10,11,12,12a-decahydro-1H-[1,4]diazocino[7,8,1-jk]carbazole] |  |  |  | Ki ([1]; read-out: 5-HT2c Affinity KI): 116 nM |
| CN1CCc2ccc(F)c3c4c(n(c23)CC1)CCC4 [Example 24, 8-Fluoro-3-methyl-2,3,4,5,10,11-hexahydro-1H,9H-cyclopenta[b][1,4]diazocino[7,8,1-hi]indole] | 93 |  |  |  |
| CN1CCc2ccc(F)c3c4c(n(c23)CC1)CCCC4 [Example 25, 8-Fluoro-3-methyl-2,3,4,5,9,10,11,12-octahydro-1H-[1,4]diazocino[7,8,1-jk]carbazole] | 68 |  |  |  |
| CN1CCc2ccc(F)c3c2N(CC1)C1CCCC31 (centres unmarked) [Example 26, 8-Fluoro-3-methyl-2,3,4,5,9,10,11,11a-octahydro-1H,8bH-cyclopenta[b][1,4]diazocino[7,8,1-hi]indole] |  |  |  | Ki ([1]; read-out: 5-HT2c Affinity KI): 176 nM |
| CN1CCc2ccc(F)c3c2N(CC1)C1CCCCC31 (centres unmarked) [Example 27, 8-Fluoro-3-methyl-2,3,4,5,8b,9,10,11,12,12a-decahydro-1H-[1,4]diazocino[7,8,1-jk]carbazole] | 13 |  | 70 | EC50 [2, 4]: 261 nM |
| Fc1ccc2c3c1c1c(n3CCNCC2)CCC1 [Example 28, 8-Fluoro-2,3,4,5,10,11-hexahydro-1H,9H-cyclopenta[b][1,4]diazocino[7,8,1-hi]indole] | 12 | 36 | 80 |  |
| Fc1ccc2c3c1c1c(n3CCNCC2)CCCC1 [Example 29, 8-Fluoro-2,3,4,5,9,10,11,12-octahydro-1H-[1,4]diazocino[7,8,1-jk]carbazole] | 1 | 8 | 90 |  |
| Fc1ccc2c3c1C1CCCC1N3CCNCC2 (centres unmarked) [Example 30, 8-Fluoro-2,3,4,5,9,10,11,11a-octahydro-1H,8bH-cyclopenta[b][1,4]diazocino[7,8,1-hi]indole] | 16 | 36 | 90 |  |
| Fc1ccc2c3c1C1CCCCC1N3CCNCC2 (centres unmarked) [Example 31, 8-Fluoro-2,3,4,5,8b,9,10,11,12,12a-decahydro-1H[1,4]diazocino[7,8,1-jk]carbazole] | 8 | 87 | 60 |  |
| CN1CCc2cccc3c2N(CC1)C1CCSCC31 (centres unmarked) [Example 44, 3-Methyl-2,3,4,5,9,10,11,12-octahydro-1H,9H-[1,4]diazocino[7,8,1-hi]thiopyrano[4,3-b]indole] |  |  |  | Ki ([1]; read-out: 5-HT2c Affinity KI): 1720 nM |
| CSc1ccc2c(c1)C(N1CCN(C)CC1)Cc1ccccc1S2 (centres unmarked) [Methiothepin, reference compound] |  |  |  | Ki ([1]; reference compounds, displacement of [125I]DOI, CHO cell membranes, read-out: Ki (95% confidence interval)): 4.6 nM |
| COc1cc(CC(C)N)c(OC)cc1I (centres unmarked) [[^125I] DOI, reference compound] |  |  |  | Kd ([1]; saturation binding with increasing concentrations of [125I]DOI, read-out: dissociation constant, KD): 0.4 nM |
